Source: ChEMBL document CHEMBL1127249, “Design, structure activity and x-ray crystallographic studies of pseudosymmetrical nonpeptidyl HIV-1 protease inhibitors” (Bioorg Med Chem Lett, 1994)

Tests used:
[1] = tested on: Human immunodeficiency virus 1; test: Antiviral activity against HIV-1; type: functional, organism-based
[2] = biological target: Human immunodeficiency virus type 1 protease (Human immunodeficiency virus 1, UniProt Q72874); test: Compound was tested for inhibitory activity against recombinant HIV-1 protease using 125 I-SPA (scintillation proximity assay)

| Compound | IC50 [1] | IC50 [2] |
| --- | --- | --- |
| O=C(N[C@H]1CCCC[C@@H]1NC(=O)[C@H](Cc1ccccc1)CC(O)C[C@@H](Cc1ccccc1)C(=O)N[C@H]1CCCC[C@@H]1NC(=O)c1ccccn1)c1ccccn1 | > 20000 nM | 400 nM |
| O=C(N[C@H]1CCCC[C@@H]1NC(=O)[C@H](Cc1ccccc1)CC(O)C[C@@H](Cc1ccccc1)C(=O)N[C@H]1CCCC[C@@H]1NC(=O)c1ccncc1)c1ccncc1 | > 20000 nM | 350 nM |
| CC(C)(C)OC(=O)N[C@H]1CCCC[C@@H]1NC(=O)[C@H](Cc1ccccc1)CC(O)C[C@@H](Cc1ccccc1)C(=O)N[C@H]1CCCC[C@@H]1NC(=O)OC(C)(C)C |  | > 10000 nM |
| O=C(N[C@H]1CCCC[C@@H]1NC(=O)[C@H](Cc1ccccc1)CC(O)C[C@@H](Cc1ccccc1)C(=O)N[C@H]1CCCC[C@@H]1NC(=O)c1cccnc1)c1cccnc1 |  | 600 nM |
| O=C(N[C@H]1CCCC[C@@H]1NC(=O)[C@H](Cc1ccccc1)CC(O)C[C@@H](Cc1ccccc1)C(=O)N[C@H]1CCCC[C@@H]1NC(=O)c1ccc2ccccc2n1)c1ccc2ccccc2n1 | 2000 nM | 40 nM |
| O=C(N[C@H]1CCCC[C@@H]1NC(=O)[C@H](Cc1ccccc1)CC(O)C[C@@H](Cc1ccccc1)C(=O)N[C@H]1CCCC[C@@H]1NC(=O)c1cc2ccccc2cn1)c1cc2ccccc2cn1 |  | 45 nM |
| CC(=O)N[C@H]1CCCC[C@@H]1NC(=O)[C@H](Cc1ccccc1)CC(O)C[C@@H](Cc1ccccc1)C(=O)N[C@H]1CCCC[C@@H]1NC(C)=O |  | 3000 nM |
